Data reported in EP3771464A1, “PEPTIDES AS INHIBITOR OF FIBROTIC MATRIX ACCUMULATION” (Max-Planck-Gesellschaft zur Förderung der Wissenschaften …, priority 2019, dated 2021).
“Also recorded” adds a separate entry of the source. Residues, ends and D or L forms follow the SMILES beside them. No end group written: not given here.

Tested on: CCl4-treated mice
Assay: CCl4 induced liver fibrosis in mice, collagen in the liver as marker of matrix accumulation
Format: in vivo
Conditions: Example 2, Figure 1, CCl4 for 6 weeks, peptides 25 mg/kg/mouse/day intraperitoneal, daily from day 32 for 10 days
Procedure: Figure 1 Prevention of fibrosis progression by proline-containing cyclic and amidated linear peptides. Mice were injected for 6 weeks with CCl4 in order to induce liver fibrosis. Starting on day 32 the mice received daily intraperitoneal injections of 25 mg/kg/mouse/day of the peptides in 0.9% NaCl for a total of 10 days. CCl4-treated mice also received NaCl 0.9%. The healthy control group (CT) only received 0.9% NaCl. N= 4/ 10/ 8/ 5/ 10/ 8/ 11/ 7 in two experiments. The following peptides were tested on CCl4-treated mice: cyclic Pro-Gly-Leu-Gln-Gly-Glu (Cyclic PGLQGE), and compared to two controls: cyclic Pro-Gly-Leu-Asn-Gly-Glu (Cyclic CT1+P: cyclic PGLNGE) and cyclic Pro-Gly-Leu-Hyp-Gly-Glu (Cyclic CT2+P: cyclic PGLOGE). Linear Gly-Leu-Gln-Gly-Glu-NH2 (Linear GLQGE-NH2) was also tested and compared to two controls: linear Gly-Leu-Asn-Gly-Glu-NH2 (Linear CT1-NH2: linear GLNGE-NH2) and linear Gly-Leu-Hyp-Gly-Glu-NH2 (Linear CT2-NH2: linear GLOGE-NH2). *p<0.05. Evaluated by t-test. Data presented as mean +/- SEM. Figure 2 Prevention of fibrosis progression by cyclic peptides and acetylated linear peptides. Mice were injected for 6 weeks with CCl4 in order to induce liver fibrosis. Starting on day 32 the mice received daily intraperitoneal injections of 25 mg/kg/mouse/day of the peptides in 0.9% NaCl for a total of 10 days. CCl4-treated mice also received NaCl 0.9%. The healthy control group (CT) only received 0.9% NaCl. N= 5/ 18/ 9/ 9/ 6/ 5/ 4/ 4 in two experiments. The following peptides were tested on CCl4-treated mice: cyclic Gly-Leu-Gln-Gly-Glu (Cyclic GLQGE), and compared to two controls: cyclic Gly-Leu-Asn-Gly-Glu (Cyclic CT1: cyclic GLNGE) and cyclic Gly-Leu-Hyp-Gly-Glu (Cyclic CT2: cyclic GLOGE). Linear Ac-Gly-Leu-Gln-Gly-Glu (Linear Ac-GLQGE) was also tested and compared to two controls: linear Ac-Gly-Leu-Asn-Gly-Glu (Linear Ac-CT1: linear Ac-GLNGE) and linear Ac-Gly-Leu-Hyp-Gly-Glu (Linear Ac-CT2: linear Ac-GLOGE). *p<0.05, **p<0.005. Evaluated by t-test. Data presented as mean +/- SEM.
Mice were injected for 6 weeks with CCl4 in order to induce liver fibrosis. Starting on day 32 the mice received daily intraperitoneal injections of the peptides at a final dose of 25 mg/kg/mouse/day diluted in NaCl 0.9% for a total of 10 days. In these experiments, the following peptides were tested: cyclic peptide Pro-Gly-Leu-Gln-Gly-Glu, cyclic peptide Pro-Gly-Leu-Asn-Gly-Glu, cyclic peptide Pro-Gly-Leu-Hyp-Gly-Glu, linear peptide Gly-Leu-Gln-Gly-Glu-NH2, linear peptide Gly-Leu-Asn-Gly-Glu-NH2, linear peptide Gly-Leu-Hyp-Gly-Glu-NH2.
Mice were injected for 6 weeks with CCl4 in order to induce liver fibrosis. Starting on day 32 the mice received daily intraperitoneal injections of the peptides at a final dose of 25 mg/kg/mouse/day diluted in NaCl 0.9% for a total of 10 days. In these experiments, the following peptides were tested: cyclic peptide Gly-Leu-Gln-Gly-Glu, cyclic peptide Gly-Leu-Asn-Gly-Glu, cyclic peptide Gly-Leu-Hyp-Gly-Glu, linear peptide Ac-Gly-Leu-Gln-Gly-Glu, linear peptide Ac-Gly-Leu-Asn-Gly-Glu, linear peptide Ac-Gly-Leu-Hyp-Gly-Glu.

Row | Molecule | collagen accumulation
1 | GLQGE-NH2 [Linear GLQGE-NH2, Gly-Leu-Gln-Gly-Glu-NH2] | able to significantly reduce CCl4-induced collagen accumulation
2 | CC(C)C[C@@H]1NC(=O)CNC(=O)[C@@H]2CCCN2C(=O)[C@H](CCC(=O)O)NC(=O)CNC(=O)[C@@H]2C[C@@H](O)CN2C1=O [Cyclic CT2+P, Pro-Gly-Leu-Hyp-Gly-Glu] (HELM PEPTIDE1{E.P.G.L.[Hyp].G}$PEPTIDE1,PEPTIDE1,1:R1-6:R2$$$V2.0) | neither the cyclic forms of the control peptides (with Pro: Pro-Gly-Leu-Asn-Gly-Glu or Pro-Gly-Leu-Hyp-Gly-Glu) nor the linear forms of the control peptides Gly-Leu-Asn-Gly-Glu-NH2 and Gly-Leu-Hyp-Gly-Glu-NH2 were able to reduce collagen amount in the liver
3 | CC(C)C[C@@H]1NC(=O)CNC(=O)[C@@H]2CCCN2C(=O)[C@H](CCC(=O)O)NC(=O)CNC(=O)[C@H](CCC(N)=O)NC1=O [Cyclic PGLQGE, Pro-Gly-Leu-Gln-Gly-Glu] (HELM PEPTIDE1{E.P.G.L.Q.G}$PEPTIDE1,PEPTIDE1,1:R1-6:R2$$$V2.0) | able to significantly reduce collagen accumulation
4 | CC(C)C[C@@H]1NC(=O)CNC(=O)[C@@H]2CCCN2C(=O)[C@H](CCC(=O)O)NC(=O)CNC(=O)[C@H](CC(N)=O)NC1=O [Cyclic CT1+P, Pro-Gly-Leu-Asn-Gly-Glu] (HELM PEPTIDE1{E.P.G.L.N.G}$PEPTIDE1,PEPTIDE1,1:R1-6:R2$$$V2.0) | neither the cyclic forms of the control peptides (with Pro: Pro-Gly-Leu-Asn-Gly-Glu or Pro-Gly-Leu-Hyp-Gly-Glu) nor the linear forms of the control peptides Gly-Leu-Asn-Gly-Glu-NH2 and Gly-Leu-Hyp-Gly-Glu-NH2 were able to reduce collagen amount in the liver

Same assay, conditions: Example 3, Figure 2, CCl4 for 6 weeks, peptides 25 mg/kg/mouse/day intraperitoneal, daily from day 32 for 10 days

Row | Molecule | collagen accumulation
5 | CC(C)C[C@@H]1NC(=O)CNC(=O)[C@H](CCC(=O)O)NC(=O)CNC(=O)[C@H](CC(N)=O)NC1=O [Cyclic CT1, Gly-Leu-Asn-Gly-Glu] (HELM PEPTIDE1{E.G.L.N.G}$PEPTIDE1,PEPTIDE1,1:R1-5:R2$$$V2.0) | failed to inhibit collagen accumulation
6 | CC(C)C[C@@H]1NC(=O)CNC(=O)[C@H](CCC(=O)O)NC(=O)CNC(=O)[C@H](CCC(N)=O)NC1=O [Cyclic GLQGE, Gly-Leu-Gln-Gly-Glu] (HELM PEPTIDE1{E.G.L.Q.G}$PEPTIDE1,PEPTIDE1,1:R1-5:R2$$$V2.0) | larger inhibitory effect compared to the linear Gly-Leu-Gln-Gly-Glu-NH2 or Ac-Gly-Leu-Gln-Gly-Glu
7 | Ac-GLQGE [Linear Ac-GLQGE, Ac-Gly-Leu-Gln-Gly-Glu] | able to significantly reduce CCl4-induced collagen accumulation
8 | Ac-GLNGE [Linear Ac-CT1, Ac-Gly-Leu-Asn-Gly-Glu] | neither the cyclic forms nor the linear forms of the peptides Ac-Gly-Leu-Asn-Gly-Glu and Ac-Gly-Leu-Hyp-Gly-Glu were able to reduce collagen amount in the liver
9 | CC(=O)NCC(=O)N[C@@H](CC(C)C)C(=O)N1C[C@H](O)C[C@H]1C(=O)NCC(=O)N[C@@H](CCC(=O)O)C(=O)O [Linear Ac-CT2, Ac-Gly-Leu-Hyp-Gly-Glu] | neither the cyclic forms nor the linear forms of the peptides Ac-Gly-Leu-Asn-Gly-Glu and Ac-Gly-Leu-Hyp-Gly-Glu were able to reduce collagen amount in the liver
10 | CC(C)C[C@@H]1NC(=O)CNC(=O)[C@H](CCC(=O)O)NC(=O)CNC(=O)[C@@H]2C[C@@H](O)CN2C1=O [Cyclic CT2, Gly-Leu-Hyp-Gly-Glu] (HELM PEPTIDE1{E.G.L.[Hyp].G}$PEPTIDE1,PEPTIDE1,1:R1-5:R2$$$V2.0) | failed to inhibit collagen accumulation

Same assay, conditions: Example 3, Figure 2, CCl4 for 6 weeks, peptides 25 mg/kg/mouse/day intraperitoneal, daily from day 32 for 10 days, listed as cyclic peptide Gly-Leu-Gln-Gly-Glu

Row | Molecule | collagen accumulation
11 | CC(C)C[C@@H]1NC(=O)CNC(=O)[C@H](CCC(=O)O)NC(=O)CNC(=O)[C@H](CCC(N)=O)NC1=O [Cyclic GLQGE, Gly-Leu-Gln-Gly-Glu] (HELM PEPTIDE1{E.G.L.Q.G}$PEPTIDE1,PEPTIDE1,1:R1-5:R2$$$V2.0) | able to significantly reduce collagen accumulation; also recorded: more efficient in reducing collagen accumulation also in comparison to the cyclic peptide with proline Pro-Gly-Leu-Gln-Gly-Glu

Tested on: TGFβ
Assay: unstimulated TGFβ expression in murine hepatocytes (data not shown)
Format: cell-based
Conditions: not given

Row | Molecule | unstimulated TGFβ expression
12 | GLNGE-NH2 [Linear CT1-NH2, Gly-Leu-Asn-Gly-Glu-NH2] | had no effect
13 | GLQGE-NH2 [Linear GLQGE-NH2, Gly-Leu-Gln-Gly-Glu-NH2] | efficiently inhibits unstimulated TGFβ expression in murine hepatocytes
14 | CC(C)C[C@H](NC(=O)CN)C(=O)N1C[C@H](O)C[C@H]1C(=O)NCC(=O)N[C@@H](CCC(=O)O)C(N)=O [Linear CT2-NH2, Gly-Leu-Hyp-Gly-Glu-NH2] | had no effect
